“And” between values parts separate entries of the source, which are not always exact repeats. Equal entries are not always repeated. ± gives the expanded uncertainty stated by the source. Blank lines part the entries; values can stand above or below the compound they belong to.
Experiment: refractive index (Na D-line) (dimensionless); wn = mass fraction of the nth substance listed
Conditions: 298.15 K, 101 kPa, Liquid, Standard Abbe refractometry

- refractive index (w1 = 0.0971): 1.3426 ± 0.0008
SMILES: CC(C)(C)O [2-methylpropan-2-ol] + O

- refractive index (w1 = 0.0982): 1.3431 ± 0.0008
SMILES: CCC(C)O (stereo unspecified) [butan-2-ol] + O

- refractive index (w1 = 0.0401): 1.3393 ± 0.0008
- refractive index (w1 = 0.0452): 1.3404 ± 0.0008
- refractive index (w1 = 0.0472): 1.34 ± 0.0008 and 1.3403 ± 0.0008
SMILES: O=C([O-])[C@H](O)[C@@H](O)C(=O)[O-].[Na+].[Na+] [disodium L-tartrate] + O

- refractive index (w1 = 0.0949): 1.3413 ± 0.0008
SMILES: CCCO [propan-1-ol] + O

Reference: the NIST ThermoML archive (doi:10.1021/je300533r)
